Source: patent US12649750B2, “Macrocyclic compounds, compositions, and methods of using thereof” (Sionna Therapeutics Inc., priority 2022, dated 2026)
Each block holds one compound with its values, some of them ahead of it.

Legend:
NBD1 = biological target: T1, NBD1 (Homo sapiens, UniProt P13569); assay: Aggregation analysis using differential static light scattering (DSLS), thermal stability of NBD1 (ΔTagg); assay type: binding; details: ΔTagg versus DMSO control, NBD1 0.2 mg/ml
T1 construct: Purified recombinant NBD1 was produced using previously described methods; made in house
Outline: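 Differential static light scattering read from 25° C. to 70° C. every 0.5° C., ramp 1° C./min, on recombinant NBD1 (0.2 mg/ml; Tris/NaCl/MgCl2 buffer with 2 mM ATP, 2 mM DTT, pH 7.6, 1% glycerol) plus compound. Reported ΔTagg subtracts averaged DMSO Tagg from inflection-point Tagg; categories A ≤5, B >5-10, C >10-25° C.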

CFTR = biological target: T2, CFTR (Homo sapiens, UniProt P13569, DEL508-508); assay: TECC24 AUC fold over DMSO @10 μM, CFTR-mediated transepithelial chloride transport in CF-HBE cells; assay type: cell-based; details: test agent AUC divided by DMSO vehicle AUC, primary CF-HBE cells, ΔF508 homozygous donor, 48 hours incubation
T2 construct: Primary human bronchial epithelial cells from a ΔF508 homozygous CF donor; host or cells: primary human bronchial epithelial cells (CF-HBE), ΔF508 homozygous donor
Outline: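 Value is ratio of test-agent to DMSO AUC of equivalent transepithelial Cl− current, integrated from forskolin (10 μM) stimulation to CFTR inhibitor-172 (20 μM) block, with benzamil 10 μM present. CF-HBE (ΔF508/ΔF508) cultures had 48 h compound exposure at 10 μM, 36.5° C before recording.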

T2 sequence (P13569 with tags, fused parts or gaps DEL508-508): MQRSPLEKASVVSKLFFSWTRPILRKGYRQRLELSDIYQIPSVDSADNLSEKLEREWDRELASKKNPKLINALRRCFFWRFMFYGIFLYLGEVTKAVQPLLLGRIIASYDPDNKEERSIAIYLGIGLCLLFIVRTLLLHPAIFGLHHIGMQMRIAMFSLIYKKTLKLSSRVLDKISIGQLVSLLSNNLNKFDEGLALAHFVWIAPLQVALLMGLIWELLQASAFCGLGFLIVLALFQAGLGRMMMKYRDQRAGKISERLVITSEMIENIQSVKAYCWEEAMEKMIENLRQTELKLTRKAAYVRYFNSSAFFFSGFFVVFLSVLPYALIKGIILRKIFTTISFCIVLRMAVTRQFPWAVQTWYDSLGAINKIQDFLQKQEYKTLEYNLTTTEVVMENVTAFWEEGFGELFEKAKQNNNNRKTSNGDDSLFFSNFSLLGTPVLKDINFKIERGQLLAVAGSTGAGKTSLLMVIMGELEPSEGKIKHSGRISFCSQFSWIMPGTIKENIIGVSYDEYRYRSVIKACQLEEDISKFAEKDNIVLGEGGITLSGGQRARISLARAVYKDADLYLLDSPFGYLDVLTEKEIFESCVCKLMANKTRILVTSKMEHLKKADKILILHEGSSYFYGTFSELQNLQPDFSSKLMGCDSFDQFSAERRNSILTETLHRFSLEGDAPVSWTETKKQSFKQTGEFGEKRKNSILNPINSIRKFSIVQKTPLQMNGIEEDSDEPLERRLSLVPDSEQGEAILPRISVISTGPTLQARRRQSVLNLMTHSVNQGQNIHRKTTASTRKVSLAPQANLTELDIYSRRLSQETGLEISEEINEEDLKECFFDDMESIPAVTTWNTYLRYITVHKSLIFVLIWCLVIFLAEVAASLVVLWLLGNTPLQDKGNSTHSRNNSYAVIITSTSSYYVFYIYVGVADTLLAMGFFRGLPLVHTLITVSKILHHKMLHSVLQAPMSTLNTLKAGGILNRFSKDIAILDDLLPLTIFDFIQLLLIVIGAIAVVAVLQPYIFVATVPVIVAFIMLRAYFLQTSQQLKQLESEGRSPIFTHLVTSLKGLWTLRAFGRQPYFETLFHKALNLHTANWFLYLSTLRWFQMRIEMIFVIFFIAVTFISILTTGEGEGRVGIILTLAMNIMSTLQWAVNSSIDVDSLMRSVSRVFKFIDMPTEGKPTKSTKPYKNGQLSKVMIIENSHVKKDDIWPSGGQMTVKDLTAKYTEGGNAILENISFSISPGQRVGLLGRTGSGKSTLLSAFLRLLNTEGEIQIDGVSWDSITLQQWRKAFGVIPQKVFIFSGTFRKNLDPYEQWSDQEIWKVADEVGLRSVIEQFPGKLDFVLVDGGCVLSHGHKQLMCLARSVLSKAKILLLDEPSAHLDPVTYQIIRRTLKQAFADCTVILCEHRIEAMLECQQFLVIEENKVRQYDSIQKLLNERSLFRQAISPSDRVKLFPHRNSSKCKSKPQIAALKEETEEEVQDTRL
T1 sequence (P13569 423-646 limits assumed): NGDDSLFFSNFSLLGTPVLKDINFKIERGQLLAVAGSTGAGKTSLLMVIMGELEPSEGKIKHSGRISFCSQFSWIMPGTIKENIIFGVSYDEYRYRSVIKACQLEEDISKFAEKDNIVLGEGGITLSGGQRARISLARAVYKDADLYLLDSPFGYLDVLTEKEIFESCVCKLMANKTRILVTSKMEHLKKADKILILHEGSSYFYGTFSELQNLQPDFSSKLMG

Compound: CC(Cc1cccc(C2(CN)CCCC(C)(C)CS(=O)(=O)CCc3c(c(F)cc4[nH]ccc34)Oc3ccc(F)c(c3)-c3nc2nn3C)c1)C(=O)O (single isomer, unassigned) [Compound 136B, 3-[3-[6-(aminomethyl)-22,28-difluoro-3,10,10-trimethyl-12,12-dioxo-24-oxa-12λ6-thia-3,4,19,30-tetrazapentacyclo-[23.3.1.12,5.015,23.016,20]triaconta-1(29),2(30),4,15,17,20,22,25,27-nonaen-6-yl]phenyl]-2-methyl-propanoic Acid]
DSLS 3D (100 μM ΔT) (NBD1): C (a value greater than 10 °C and less than or equal to 25 °C is marked “C”)
TECC (AUC, 10 μM) (CFTR): C (a value between 20 and 80 is marked “C”)

Compound: CC(Cc1cccc(C2(CNCC(F)F)CCCC(C)(C)CS(=O)(=O)CCc3c(c(F)cc4[nH]ccc34)Oc3ccc(F)c(c3)-c3nc2nn3C)c1)C(=O)O (single isomer, unassigned) [Compound 137B, 3-[3-[6-[(2,2-difluoroethylamino)methyl]-22,28-difluoro-3,10,10-trimethyl-12,12-dioxo-24-oxa-12λ6-thia-3,4,19,30-tetrazapentacyclo[23.3.1.12,5.015,23.016,20]triaconta-1(29),2(30),4,15,17,20,22,25,27-nonaen-6-yl]phenyl]-2-methyl-propanoic Acid]
DSLS 3D (100 μM ΔT) (NBD1): B (a value above 5 °C and less than or equal to 10 °C is marked “B”)
TECC (AUC, 10 μM) (CFTR): A (a TECC value less than 12 is marked “A”)

Compound: CC(C)OC(=O)[C@@H](C)Cc1cccc(C2(C)CCCC(C)(C)CS(=O)(=O)CCc3c(c(F)cc4[nH]ccc34)Oc3ccc(F)c(c3)-c3nc2nn3C)c1 (single isomer, unassigned) [Compound 139]
DSLS 3D (100 μM ΔT) (NBD1): B (a value above 5 °C and less than or equal to 10 °C is marked “B”)
TECC (AUC, 10 μM) (CFTR): C (a value between 20 and 80 is marked “C”)

TECC (AUC, 10 μM) (CFTR): B (a value between 12-20 is marked “B”)
Compound: C[C@@H](Cc1cccc(C2(C)CCCC(C)(C)CS(=O)(=O)CCc3c(c(F)cc4[nH]ccc34)Oc3ccc(F)c(c3)-c3nc2nn3C)c1)C(=O)OCCO (single isomer, unassigned) [Compound 140]
DSLS 3D (100 μM ΔT) (NBD1): C (a value greater than 10 °C and less than or equal to 25 °C is marked “C”)

TECC (AUC, 10 μM) (CFTR): B (a value between 12-20 is marked “B”)
Compound: C[C@@H](Cc1cccc(C2(C)CCCC(C)(C)CS(=O)(=O)CCc3c(c(F)cc4[nH]ccc34)Oc3ccc(F)c(c3)-c3nc2nn3C)c1)C(=O)OCC(O)CO (single isomer, unassigned) [Compound 141]
DSLS 3D (100 μM ΔT) (NBD1): C (a value greater than 10 °C and less than or equal to 25 °C is marked “C”)

TECC (AUC, 10 μM) (CFTR): B (a value between 12-20 is marked “B”)
Compound: C[C@@H](Cc1cccc(C2(C)CCCC(C)(C)CS(=O)(=O)CCc3c(c(F)cc4[nH]ccc34)Oc3ccc(F)c(c3)-c3nc2nn3C)c1)C(=O)OCCN1CCOCC1 (single isomer, unassigned) [Compound 142]
DSLS 3D (100 μM ΔT) (NBD1): B (a value above 5 °C and less than or equal to 10 °C is marked “B”)

TECC (AUC, 10 μM) (CFTR): B (a value between 12-20 is marked “B”)
Compound: C[C@@H](Cc1cccc(C2(C)CCCC(C)(C)CS(=O)(=O)CCc3c(c(F)cc4[nH]ccc34)Oc3ccc(F)c(c3)-c3nc2nn3C)c1)C(=O)OCCN1CCN(C)CC1 (single isomer, unassigned) [Compound 143]
DSLS 3D (100 μM ΔT) (NBD1): B (a value above 5 °C and less than or equal to 10 °C is marked “B”)

TECC (AUC, 10 μM) (CFTR): B (a value between 12-20 is marked “B”)
Compound: C[C@@H](Cc1cccc(C2(C)CCCC(C)(C)CS(=O)(=O)CCc3c(c(F)cc4[nH]ccc34)Oc3ccc(F)c(c3)-c3nc2nn3C)c1)C(=O)OCc1coc(=O)o1 (single isomer, unassigned) [Compound 144]
DSLS 3D (100 μM ΔT) (NBD1): C (a value greater than 10 °C and less than or equal to 25 °C is marked “C”)

Compound: C[C@@H](Cc1cccc(C2(C)CCCC(C)(C)CS(=O)(=O)CCc3c(c(F)cc4[nH]ccc34)Oc3ccc(F)c(c3)-c3nc2nn3C)c1)C(=O)OCOC(=O)C(C)(C)C (single isomer, unassigned) [Compound 145]
DSLS 3D (100 μM ΔT) (NBD1): A (an ΔTagg value less than or equal to 5 °C is marked “A”)
TECC (AUC, 10 μM) (CFTR): C (a value between 20 and 80 is marked “C”)

Compound: C[C@@H](Cc1cccc(C2(C)CCCC(C)(C)CS(=O)(=O)CCc3c(c(F)cc4[nH]ccc34)Oc3ccc(F)c(c3)-c3nc2nn3C)c1)C(=O)NS(C)(=O)=O (single isomer, unassigned) [Compound 146]
DSLS 3D (100 μM ΔT) (NBD1): C (a value greater than 10 °C and less than or equal to 25 °C is marked “C”)
TECC (AUC, 10 μM) (CFTR): A (a TECC value less than 12 is marked “A”)

Compound: CONC(=O)[C@@H](C)Cc1cccc(C2(C)CCCC(C)(C)CS(=O)(=O)CCc3c(c(F)cc4[nH]ccc34)Oc3ccc(F)c(c3)-c3nc2nn3C)c1 (single isomer, unassigned) [Compound 147]
DSLS 3D (100 μM ΔT) (NBD1): C (a value greater than 10 °C and less than or equal to 25 °C is marked “C”)
TECC (AUC, 10 μM) (CFTR): A (a TECC value less than 12 is marked “A”)

Compound: C[C@@H](Cc1cccc(C2(C)CCCC(C)(C)CS(=O)(=O)CCc3c(c(F)cc4[nH]ccc34)Oc3ccc(F)c(c3)-c3nc2nn3C)c1)C(=O)NOCC(O)CO (single isomer, unassigned) [Compound 148]
DSLS 3D (100 μM ΔT) (NBD1): C (a value greater than 10 °C and less than or equal to 25 °C is marked “C”)
TECC (AUC, 10 μM) (CFTR): C (a value between 20 and 80 is marked “C”)

Compound: CNC(=O)[C@@H](C)Cc1cccc(C2(C)CCCC(C)(C)CS(=O)(=O)CCc3c(c(F)cc4[nH]ccc34)Oc3ccc(F)c(c3)-c3nc2nn3C)c1 (single isomer, unassigned) [Compound 149]
DSLS 3D (100 μM ΔT) (NBD1): C (a value greater than 10 °C and less than or equal to 25 °C is marked “C”)
TECC (AUC, 10 μM) (CFTR): A (a TECC value less than 12 is marked “A”)

Compound: C[C@@H](Cc1cccc(C2(C)CCCC(C)(C)CS(=O)(=O)CCc3c(c(F)cc4[nH]ccc34)Oc3ccc(F)c(c3)-c3nc2nn3C)c1)C(=O)NS(=O)(=O)C1CC1 (single isomer, unassigned) [Compound 150]
DSLS 3D (100 μM ΔT) (NBD1): C (a value greater than 10 °C and less than or equal to 25 °C is marked “C”)
TECC (AUC, 10 μM) (CFTR): A (a TECC value less than 12 is marked “A”)

Compound: COCC(Cc1cccc(C2(C)CCCC(C)(C)CS(=O)(=O)CCc3c(c(F)cc4[nH]ccc34)Oc3ccc(F)c(c3)-c3nc2nn3C)c1)C(=O)O (single isomer, unassigned) [Compound 153A, 2-[[3-(22,28-difluoro-3,6,10,10-tetramethyl-12,12-dioxo-24-oxa-12λ6-thia-3,4,19,30-tetrazapentacyclo[23.3.1.12,5.015,23.016,20]triaconta-1(29),2(30),4,15,17,20,22,25,27-nonaen-6-yl)phenyl]methyl]-3-methoxy-propanoic Acid]
DSLS 3D (100 μM ΔT) (NBD1): C (a value greater than 10 °C and less than or equal to 25 °C is marked “C”)
TECC (AUC, 10 μM) (CFTR): C (a value between 20 and 80 is marked “C”)

Compound: COCC(Cc1cccc(C2(C)CCCC(C)(C)CS(=O)(=O)CCc3c(c(F)cc4[nH]ccc34)Oc3ccc(F)c(c3)-c3nc2nn3C)c1)C(=O)O (single isomer, unassigned) [Compound 153B, 2-[[3-(22,28-difluoro-3,6,10,10-tetramethyl-12,12-dioxo-24-oxa-12λ6-thia-3,4,19,30-tetrazapentacyclo[23.3.1.12,5.015,23.016,20]triaconta-1(29),2(30),4,15,17,20,22,25,27-nonaen-6-yl)phenyl]methyl]-3-methoxy-propanoic Acid]
DSLS 3D (100 μM ΔT) (NBD1): A (an ΔTagg value less than or equal to 5 °C is marked “A”)
TECC (AUC, 10 μM) (CFTR): C (a value between 20 and 80 is marked “C”)

Compound: COCC(Cc1cccc(C2(C)CCCC(C)(C)CS(=O)(=O)CCc3c(c(F)cc4[nH]ccc34)Oc3ccc(F)c(c3)-c3nc2nn3C)c1)C(=O)O (single isomer, unassigned) [Compound 153C, 2-[[3-(22,28-difluoro-3,6,10,10-tetramethyl-12,12-dioxo-24-oxa-12λ6-thia-3,4,19,30-tetrazapentacyclo[23.3.1.12,5.015,23.016,20]triaconta-1(29),2(30),4,15,17,20,22,25,27-nonaen-6-yl)phenyl]methyl]-3-methoxy-propanoic Acid]
DSLS 3D (100 μM ΔT) (NBD1): A (an ΔTagg value less than or equal to 5 °C is marked “A”)
TECC (AUC, 10 μM) (CFTR): A (a TECC value less than 12 is marked “A”)

Compound: C[C@H](Cc1cccc(C2(C)CCCC(C)(C)CS(=O)(=O)CCc3c(c(F)cc4[nH]ccc34)Oc3ccc(F)c(c3)-c3nc2c[nH]3)c1)C(=O)O (single isomer, unassigned) [Compound 157A]
DSLS 3D (100 μM ΔT) (NBD1): A (an ΔTagg value less than or equal to 5 °C is marked “A”)
TECC (AUC, 10 μM) (CFTR): A (a TECC value less than 12 is marked “A”)

Compound: C[C@H](Cc1cccc(C2(C)CCCC(C)(C)CS(=O)(=O)CCc3c(c(F)cc4[nH]ccc34)Oc3ccc(F)c(c3)-c3nc2c[nH]3)c1)C(=O)O (single isomer, unassigned) [Compound 157B]
DSLS 3D (100 μM ΔT) (NBD1): C (a value greater than 10 °C and less than or equal to 25 °C is marked “C”)
TECC (AUC, 10 μM) (CFTR): A (a TECC value less than 12 is marked “A”)

Compound: C[C@@H](Cc1cccc(C2(C)CCCC(C)(C)CS(=O)(=O)CCc3c(c(F)cc4[nH]ccc34)Oc3ccc(F)c(c3)-c3nc2nn3C)c1)C(N)=O (single isomer, unassigned) [Compound 158]
DSLS 3D (100 μM ΔT) (NBD1): C (a value greater than 10 °C and less than or equal to 25 °C is marked “C”)
TECC (AUC, 10 μM) (CFTR): A (a TECC value less than 12 is marked “A”)
